{"source": "paper PMC4667793", "about": "(Journal of medicinal chemistry, 2015)", "origin": "cited, not measured here", "target": "MtBPL (Mycobacterium tuberculosis, UniProt I6YFP0)", "sequence (I6YFP0 whole entry, looked up)": "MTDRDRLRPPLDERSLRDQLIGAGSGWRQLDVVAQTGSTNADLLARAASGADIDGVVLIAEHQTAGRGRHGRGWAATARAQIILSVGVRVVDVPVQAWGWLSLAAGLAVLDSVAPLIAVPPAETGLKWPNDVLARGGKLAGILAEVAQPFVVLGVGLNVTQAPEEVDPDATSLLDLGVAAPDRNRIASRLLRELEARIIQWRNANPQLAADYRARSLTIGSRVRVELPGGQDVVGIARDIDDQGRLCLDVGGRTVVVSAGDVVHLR", "details": "binding MtBPL; cited from earlier work", "note": "Counter-ions that a name gives are not always drawn.", "data": [{"smiles": "Nc1ncnc2c1ncn2[C@@H]1O[C@H](CNS(=O)(=O)NC(=O)CCCC[C@@H]2SC[C@@H]3NC(=O)N[C@@H]32)[C@@H](O)[C@H]1O", "note": "[Compound 14, 5′-[N-(D-biotinoyl)sulfamoyl]amino-5′-deoxyadenosine triethylammonium salt]", "values": [{"measurement": "times more tightly bound than biotin", "value": "more than 1,700 times"}]}]}
